According to patent US20240417408A1, “SMALL MOLECULE INHIBITORS OF KRAS G12C MUTANT” (MERCK SHARP & DOHME CORP., priority 2021, published 2024):

Experiments:
[1] = molecular target: T1, Biotinylated KRAS G12C protein and GST-tagged Ras binding domain of c-RAF (Homo sapiens, UniProt P01116, C118S/C51S/C80L/G12C); assay: Test Example 5: RAS:RAF-RBD binding assay (TR-FRET); conditions: 30-minute incubation with compound, then GST-c-RAF RBD, read-out: cRaf IC50
T1 construct: biotin acceptor peptide (Avi-type, […]
Experimental: Test Example 5: Procedure for RAS:RAF-RBD Binding Assay
The RAF-Ras binding domain (RBD) protein interaction assay utilizes Biotinylated KRAS G12C protein (SEQ ID NO: 3) and the GST-tagged Ras binding domain of c-RAF (residues 50-132) from Jena Biosciences). Compounds are added to KRAS and then after a 30-minute incubation time the RAF-RBD and detection antibodies are added. Small molecule inhibitors that block the interaction of c-RAF-RBD prevent generation of a TR-FRET signal.
Biotinylated KRAS G12C protein is diluted to 20 nM in assay buffer (20 mM HEPES pH 7.5, 150 mM sodium chloride, 10 mM magnesium chloride, and 0.01% Tween20).
(§1) Each test compound (10 mM stock in DMSO) is diluted in DMSO to make a 10-point, 3-fold dilution series in a 384-well low dead volume microplate (Labcyte, catalog #LP-0200). Once titrations are made, 50 nL of the diluted compounds is acoustically dispensed into 384-well plates (Corning, catalog #3820) using an Echo 655 (Labcyte).
Each well of the assay plate receives 5 μL of Biotinylated KRAS G12C assay solution and is incubated at room temperature for 30 minutes. Each well then receives 5 μL of 100 nM GST-c-RAF RBD protein and a 1:100 dilution of both anti-GST-d2 (Cisbio catalog #61GSTDLA) and Strepavidin-Tb cryptate (Cisbio catalog #610SATLA) in assay buffer and the plate is mixed and briefly centrifuged followed by a 60 minute incubation at room temperature.
(§2) The time-resolved fluorescence resonance energy transfer signal of both plates is measured on an Envision (PerkinElmer) plate reader: dichroic mirror=LANCE/DELFIA DUAL/Bias; Emission1=615 nm; Emission2=665 nm; delay time=60 s. The signal of each well is determined as the ratio of the emission at 665 nm to that at 615 nm. Percent effect of each well is determined after normalization to control wells containing DMSO (no effect) or a saturating concentration of inhibitor (max effect). The apparent effect as a function of compound concentration is fit to a four-parameter logistic equation.

[2] = molecular target: T2, biotinylated KRAS protein containing G12C/C51S/C80L/C118S mutations (SEQ ID NO: 3) (Homo sapiens, UniProt P01116, C118S/C51S/C80L/G12C); assay: Test Example 4: SOS-catalyzed nucleotide exchange assay (TR-FRET); assay type: biochemical; conditions: 60-minute incubation with compound, then SOS and GTP, read-out: GNE IC50
T2 construct: biotin acceptor peptide (Avi-type, […]
Experimental: Test Example 4: Procedure for SOS-Catalyzed Nucleotide Exchange Assay
The SOS-catalyzed nucleotide exchange assay utilizes a preformed complex of recombinant biotinylated KRAS protein containing G12C/C51S/C80L/C118S mutations (SEQ ID NO: 3) (referred to as Biotinylated KRAS G12C protein hereafter), Bodipy-GDP, and Terbium-streptavidin. Compounds are added to this complex and then after a 60-minute incubation time the mixture is treated with SOS and unlabeled GTP. Small molecule inhibitors stabilize the Bodipy-GDP complex whereas the untreated protein rapidly exchanges Bodipy-GDP for unlabeled GTP resulting in reduced TR-FRET signal.
Biotinylated KRAS G12C protein is diluted to 2 μM in an EDTA buffer (20 mM HEPES, 50 mM sodium chloride, 10 mM EDTA, and 0.01% Tween) and incubated at room temperature for one hour. This mixture is then further diluted to 90 nM in an assay buffer (20 mM HEPES, 150 mM sodium chloride, 10 mM magnesium chloride, and 0.005% Tween) containing 15 nM of Terbium-Streptavidin (Invitrogen, catalog #PV3577) and 900 nM of Bodipy-GDP (Invitrogen, G22360) and incubated at room temperature for six hours. This solution is referred to as Biotinylated KRAS G12C stock solution and is then diluted to 9 nM in assay buffer to give the KRAS G12C assay solution.
as §1, with “10” for “50”, “into a” for “into”, “plate” for “plates”, “550” for “655”
Each well receives 6 μL of Biotinylated KRAS G12C assay solution using a BioRAPTR (Beckman Coulter) and is incubated at room temperature for 60 minutes in a humidified chamber. Each well then receives 3 μL of 120 nM recombinant human SOS protein and 9 mM GTP (Sigma, G8877) in assay buffer and is incubated at room temperature for 60 minutes in a humidified chamber.
as §2, with “reader: Excitation filter=340 nm; emission 1=495 nm; emission 2=520 nm;” for “reader:”, “mirror=D400/D505;” for “mirror=LANCE/DELFIA DUAL/Bias; Emission1=615 nm; Emission2=665 nm;”, “time=100 μs.” for “time=60 s.”, “520” for “665”, “495” for “615”

MIA PaCa-2 cells = assay: Test Example 3: growth inhibition activity on KRAS-G12C mutant cell line (MIA PaCa-2); assay type: cell-based; conditions: Homo sapiens, 72 h, MIA PaCa-2, 3-day culture, CellTiter-Glo 3D, read-out: CTX MiaPaCa IC50
Experimental: Test Example 3: Assay of Growth Inhibition Activity on KRAS-G12C Mutant Cell Line (MIA PaCa-2) (In Vitro)
MIA PaCa-2 cells (provided by Sumitomo Dainippon Pharma Co., Ltd.), which are a KRAS-G12C mutant human pancreas cancer cell line, were suspended in a 10% fetal bovine serum-containing RPMI1640 medium (manufactured by Fujifilm Wako Pure Chemical Corporation.). The cell suspension was seeded into each well of a 384-well U bottom microplate and cultured in an incubator containing 5% CO2 gas at 37° C. for 1 day. The compounds obtained in the Examples section were used as test compounds and were dissolved in DMSO, respectively, and each test compound was diluted with DMSO to give a concentration 500 times the final concentration. The resultant solution of the test compound in DMSO was diluted with the medium used for suspending cells and added to each well of the cell-culture plate to give a DMSO final concentration of 0.2%, followed by culture in an incubator containing 5% CO2 gas at 37° C. for another 3 days. The cell count after 3-day culture in the presence of the test compound was measured using CellTiter-Glo 3D Reagent (manufactured by Promega Corporation). To all cells were added with CellTiter-Glo 3D Reagent and mixed for 10 minutes. 30 minutes after mixing, luminescence was measured by a plate reader. The growth inhibition rate was calculated from the following equation, and the concentration of the test compound at which 50% inhibition was achieved (IC50 (nM)) was determined.
[formula] • T: the emission intensity in a well into which a test compound was added. • C: the emission intensity in a well into which a test compound was not added.

[3] = molecular target: T3, Recombinant KRAS G12C mutant protein (amino acids 1-169, SEQ ID NO: 1) (Homo sapiens, UniProt P01116, G12C); assay: Test Example 1: inhibitory activity on KRAS G12C nucleotide (GDP-GTP) exchange reaction in vitro; assay type: biochemical; conditions: BODIPY FL GDP-bound KRAS G12C incubated with compound at 25° C. for 1 hour, then SOS1 and GMPPNP, read-out: GNE IC50
T3 construct: His6 (N); TEV protease site (ENLYFQG; named from own knowledge) (N); made in house; host or cells: E. coli
Experimental: Test Example 1: Evaluation of inhibitory activity of compounds on KRAS G12C nucleotide (GDP-GTP) exchange reaction in vitro
Recombinant KRAS G12C mutant protein (amino acids 1-169, SEQ ID NO: 1) and cleaved recombinant SOS1 (amino acids 564-1049, SEQ ID NO:2) proteins were expressed in E. coli and purified by affinity chromatography.
To prepare BODIPY FL GDP-bound KRAS G12C protein, 50 μM KRAS G12C protein was incubated with 0.5 mM BODIPY FL GDP in a loading buffer (20 mM Tris-HCl (pH 7.5), 50 mM NaCl, 1 mM DTT and 2.5 mM EDTA) for 1 hour on ice. After the incubation, MgCl2 was added to a final concentration of 10 mM, followed by incubation at room temperature for 30 minutes. The mixture was allowed to pass through a NAP-5 column to remove free nucleotides and purified BODIPY FL GDP-bound KRAS G12C protein was used for compound evaluation.
For the measurement of the inhibitory activity of compounds on GDP-GTP exchange rate of recombinant KRAS G12C, BODIPY FL GDP-bound KRAS G12C protein was incubated with various concentrations of compound in a reaction buffer (20 mM Tris-HCl (pH 7.5), 100 mM NaCl, 1 mM MgCl2, 2 mM DTT, 0.1% Tween 20) at 25° C. for 1 hour. After the incubation, recombinant SOS1 and Guanosine-5′-[(β,γ)-imido]triphosphate, Tetralithium salt (GMPPNP) (Jena Bioscience GmbH) were added and incubated at room temperature for 30 minutes to proceed SOS1-dependent GDP-GTP exchange reaction on KRAS G12C. Replacement of BODIPY FL GDP by GMPPNP was measured by calculating the ratio of fluorescence intensities of BODIPY FL before and after the exchange reaction. Inhibition % was calculated by setting the fluorescence ratio from the reaction without test compound (DMSO control) and the fluorescence ratio from the reaction without SOS1 and GMPPNP as 0% and 100% inhibition, respectively. IC50 values were calculated from dose titration curve using curve fitting by XLfit software (IDBS).

[4] = molecular target: T4, interaction between KRAS G12C and cRAF-RBD (Homo sapiens, UniProt P01116, G12C); assay: Test Example 2: inhibitory activity on interaction between KRAS G12C and cRAF (Alpha technology); assay type: binding; conditions: GMPPNP-bound KRAS G12C incubated with compound at 25° C. for 1 hour, then cRAF-RBD
T4 construct: TEV protease site (ENLYFQG); made in house; host or cells: E. coli
Experimental: Test Example 2: Evaluation of Inhibitory Activity of Compounds on Interaction Between KRAS G12C and cRAF (In Vitro)
Interaction between recombinant KRAS G12C mutant protein (SEQ ID NO: 1) and cRAF RAS-binding domain (cRAF-RBD, amino acids 50-132, Jena Biosciences GmbH) was measured using Alpha technology (PerkinElmer Inc.).
Recombinant KRAS G12C protein with an N-terminal His-tag was expressed in E. coli and purified by affinity chromatography. To prepare GTP-bound form and GDP-bound form of KRAS G12C protein, 50 μM KRAS G12C protein was incubated with 1 mM GMPPNP (Jena Bioscience GmbH) and 1 mM GDP, respectively, in a loading buffer (20 mM Tris-HCl (pH 7.5), 50 mM NaCl, 1 mM DTT and 2.5 mM EDTA) for 1 hour on ice. After the incubation, MgCl2 was added to a final concentration of 10 mM, followed by incubation at room temperature for 30 minutes. The mixture was allowed to pass through a NAP-5 column to remove free nucleotides and purified, and the resultant nucleotide-bound KRAS G12C protein was used for compound evaluation.
For the measurement of the inhibitory activity of compounds on interaction between KRAS G12C and cRAF-RBD, GMPPNP-bound KRAS G12C protein was incubated with various concentrations of compound in a reaction buffer (20 mM Tris-HCl (pH 7.5), 100 mM NaCl, 1 mM MgCl2, 1 mM TCEP, 0.1% Tween 20) at 25° C. for 1 hour. After the incubation, recombinant cRAF-RBD and Alpha detection reagents were added and incubated at room temperature for 1.5 hours for binding. Interaction of KRAS G12C and cRAF-RBD was monitored by measuring Alpha signal. Inhibition % was calculated using the signal from the reaction without test compound (DMSO control) as 0% inhibition and the signal from the reaction using GDP-bound KRAS G12C in place of GMPPNP-bound KRAS G12C as 100% inhibition. IC50 values were calculated from dose titration curve using curve fitting by XLfit software (IDBS).

T4 sequence (P01116 with tags, fused parts or gaps isoform P01116-2 G12C): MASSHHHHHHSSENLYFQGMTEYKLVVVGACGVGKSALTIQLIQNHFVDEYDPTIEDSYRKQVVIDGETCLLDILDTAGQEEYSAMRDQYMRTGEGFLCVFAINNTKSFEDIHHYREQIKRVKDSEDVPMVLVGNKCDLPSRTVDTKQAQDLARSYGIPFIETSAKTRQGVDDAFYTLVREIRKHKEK
T3 sequence (P01116 with tags, fused parts or gaps isoform P01116-2 G12C): as above
T2 sequence (P01116 with tags, fused parts or gaps isoform P01116-2 G12C/C51S/C80L/C118S): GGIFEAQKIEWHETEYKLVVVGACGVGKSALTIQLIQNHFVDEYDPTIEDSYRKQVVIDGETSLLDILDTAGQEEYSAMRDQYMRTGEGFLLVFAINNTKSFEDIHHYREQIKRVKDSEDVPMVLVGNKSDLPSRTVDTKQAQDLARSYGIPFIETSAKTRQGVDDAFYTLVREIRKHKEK
T1 sequence (P01116 with tags, fused parts or gaps isoform P01116-2 G12C/C51S/C80L/C118S): as above

Row | SMILES | IC50 [1] | IC50 [2] | IC50 (MIA PaCa-2 cells) | IC50 [3] | IC50 [4]
1 | C#Cc1cccc2cccc(C3Cc4nc(OC[C@]5(CO)CC5(F)F)nc(N5CCN(C(=O)/C=C/CN6CCC(OC)CC6)[C@@H](CC#N)C5)c4CO3)c12 (stereo partly drawn) [Example 24, 2-((2S)-4-(2-(((R)-2,2-difluoro-1-(hydroxymethyl)cyclopropyl)methoxy)-7-(8-ethynylnaphthalen-1-yl)-7,8-dihydro-5H-pyrano[4,3-d]pyrimidin-4-yl)-1-((E)-4-(4-methoxypiperidin-1-yl)but-2-enoyl)piperazin-2-yl)acetonitrile] | > 50 µM | 0.055 µM | – | – | –
2 | C#Cc1cccc2cccc(C3Cc4nc(OCC56CCCN5CC(F)C6)nc(N5CCN(C(=O)C=CCN6CCC(OC)CC6)C(CC#N)C5)c4CO3)c12 (single isomer, unassigned) [Example 25a] | – | 0.142 µM | – | – | –
3 | C#Cc1cccc2cc(O)cc([C@@H]3Cc4nc(OC[C@@H]5CCCN5C)nc(N5CCN(C(=O)/C=C/CN[C@H]6CC[C@H](OC)CC6)[C@@H](CC#N)C5)c4CO3)c12 [Example 8, 2-((S)-4-((S)-7-(8-ethynyl-3-hydroxynaphthalen-1-yl)-2-(((S)-1-methylpyrrolidin-2-yl)methoxy)-7,8-dihydro-5H-pyrano[4,3-d]pyrimidin-4-yl)-1-((E)-4-(((1r,4S)-4-methoxycyclohexyl)amino)-but-2-enoyl)piperazin-2-yl)-acetonitrile] | – | – | 0.0064 µM | 0.00054 µM | 0.0644 µM
4 | C#Cc1cccc2cc(O)cc(C3Cc4nc(OC[C@@H]5CCCN5C)nc(N5CCN(C(=O)/C=C/CN6CCC(OC)CC6)[C@@H](CO)C5)c4CO3)c12 (stereo partly drawn) [Example 19, (E)-1-((2R)-4-(7-(8-ethynyl-3-hydroxynaphthalen-1-yl)-2-(((S)-1-methylpyrrolidin-2-yl)methoxy)-7,8-dihydro-5H-pyrano[4,3-d]pyrimidin-4-yl)-2-(hydroxymethyl)-piperazin-1-yl)-4-(4-meth-oxypiperidin-1-yl)but-2-en-1-one] | – | – | 8.25 µM | 0.0467 µM | 3.55 µM
